Laboratory results published in ChEMBL document CHEMBL4680158, “C6-O-alkylated 7-deazainosine nucleoside analogues: Discovery of potent and selective anti-sleeping sickness agents” (Eur J Med Chem, 2020).

Key:
MRC5 = experiment: Cytotoxicity against human MRC5 cells assessed as reduction in cell viability incubated for 3 days by resazurin dye based fluorescence assay; details: MRC5, 72 h
[1] = system: Trypanosoma brucei rhodesiense; experiment: Antitrypanosomal activity against Trypanosoma brucei rhodesiense assessed as reduction in parasite growth incubated for 3 days by resazurin dye based fluorescence assay; format: functional, organism-based; details: 72 h
[2] = Selectivity index, ratio of EC50 for cytotoxicity against human MRC5 cells to EC50 for antitrypanosomal activity against Trypanosoma brucei rhodesiense; format: toxicity, cell-based; details: read-out: Ratio EC50
[3] = system: Trypanosoma brucei brucei; experiment: Antitrypanosomal activity against Trypanosoma brucei brucei assessed as reduction in parasite growth incubated for 3 days by resazurin dye based fluorescence assay; format: functional, organism-based; details: 72 h
[4] = Selectivity index, ratio of EC50 for cytotoxicity against human MRC5 cells to EC50 for antitrypanosomal activity against Trypanosoma brucei brucei; format: toxicity, cell-based; details: read-out: Ratio EC50

SMILES	EC50 (MRC5) [µM]	EC50 [1] [µM]	selectivity ratio [2]	EC50 [3] [µM]	selectivity ratio [4]
Nc1nc2c(ccn2[C@@H]2O[C@H](CO)[C@@H](O)[C@H]2O)c(=O)[nH]1	> 64	12.9	> 5	> 64	–
O=c1[nH]cnc2c1c(Br)cn2[C@@H]1O[C@H](CO)[C@@H](O)[C@H]1O	> 64	29.2	22	52.4	> 1.2
O=c1[nH]cnc2c1c(Br)cn2[C@@H]1O[C@H](CO)C[C@H]1O	> 64	23	> 28	8.1	> 7
O=c1[nH]cnc2c1ccn2[C@@H]1O[C@H](CO)[C@@H](O)[C@H]1O [IMMUNICILLIN H]	31.3	19.1	1.6	4.2	7.4
COc1ncnc2c1c(Br)cn2[C@@H]1O[C@H](CO)C[C@H]1O	2.7	3.7	0.7	2.6	1
CCCOc1ncnc2c1c(Cl)cn2[C@@H]1O[C@H](CO)[C@@H](O)[C@H]1O	2.81	0.076	37	0.081	34
OC[C@H]1O[C@@H](n2cc(Cl)c3c(OC4CCCCC4)ncnc32)[C@H](O)[C@@H]1O	> 64	0.38	> 168	0.4	> 161
CC(C)CCOc1ncnc2c1c(Cl)cn2[C@@H]1O[C@H](CO)[C@@H](O)[C@H]1O	> 64	0.029	> 2200	0.058	> 1100
COc1ncnc2c1c(-c1ccccc1)cn2[C@@H]1O[C@H](CO)[C@@H](O)[C@H]1O	> 64	> 64	–	> 64	–
O=c1[nH]cnc2c1ccn2[C@@H]1O[C@H](CO)C[C@H]1O	> 64	2.9	> 22	29.6	> 2
CCCCOc1ncnc2c1c(Cl)cn2[C@@H]1O[C@H](CO)[C@@H](O)[C@H]1O	1.32	0.036	37	0.069	19
COc1ncnc2c1c(I)cn2[C@@H]1O[C@H](CO)[C@@H](O)[C@H]1O	38.4	0.053	708	0.22	168
Nc1nc(O)c2ccn([C@@H]3O[C@H](CO)C[C@H]3O)c2n1	> 64	> 64	–	> 64	–
CC(C)COc1ncnc2c1c(Cl)cn2[C@@H]1O[C@H](CO)[C@@H](O)[C@H]1O	49.5	0.03	1670	0.071	694
COCCOc1ncnc2c1c(Cl)cn2[C@@H]1O[C@H](CO)[C@@H](O)[C@H]1O	4.13	0.22	18.8	0.17	25
Nc1ncc2ccn([C@@H]3O[C@H](CO)[C@@H](O)[C@H]3O)c2n1	> 64	> 64	–	> 64	–
OC[C@H]1O[C@@H](n2cc(Cl)c3c(OC4CCCC4)ncnc32)[C@H](O)[C@@H]1O	38.1	0.12	326	0.2	191

SMILES	EC50 (MRC5) [µM]	EC50 [1] [µM]	selectivity ratio [2]	EC50 [3] [µM]	selectivity ratio [4]
OC[C@H]1O[C@@H](n2cc(Cl)c3c(OCCc4ccccc4)ncnc32)[C@H](O)[C@@H]1O	0.31	0.03	10.3	0.095	3.3
O=c1[nH]cnc2c1ncn2[C@@H]1O[C@H](CO)C[C@H]1O	> 64	6.7	–	1.1	–
Cc1ccc(C(=O)Nc2ccc(S(=O)(=O)O)c3cc(S(=O)(=O)O)cc(S(=O)(=O)O)c23)cc1NC(=O)c1cccc(NC(=O)Nc2cccc(C(=O)Nc3cc(C(=O)Nc4ccc(S(=O)(=O)O)c5cc(S(=O)(=O)O)cc(S(=O)(=O)O)c45)ccc3C)c2)c1 [SURAMIN]	–	0.033	–	0.028	–
O=c1[nH]cnc2c1c(-c1ccccc1)cn2[C@@H]1O[C@H](CO)[C@@H](O)[C@H]1O	> 64	9.4	> 6.8	32.2	> 2
O=c1[nH]cnc2c1c(Cl)cn2[C@@H]1O[C@H](CO)[C@@H](O)[C@H]1O	> 64	25.1	> 2.5	10.7	> 6
Nc1nc(Cl)c2c(Br)cn([C@@H]3O[C@H](CO)[C@@H](O)[C@H]3O)c2n1	40.2	0.047	847	0.13	316
COc1ncnc2c1ccn2[C@@H]1O[C@H](CO)C[C@H]1O	> 64	> 64	–	> 64	–
CCCCCOc1ncnc2c1c(Cl)cn2[C@@H]1O[C@H](CO)[C@@H](O)[C@H]1O	0.1	0.032	3.2	0.088	1.1
OC[C@H]1O[C@@H](n2cc(C(F)(F)F)c3c(O)ncnc32)[C@H](O)[C@@H]1O	3.28	10.9	0.3	> 64	0.1
OC[C@H]1O[C@@H](n2cc(Cl)c3c(OCCOc4ccccc4)ncnc32)[C@H](O)[C@@H]1O	43.2	0.16	263	0.13	329
Nc1nc(Cl)c2ccn([C@@H]3O[C@H](CO)[C@@H](O)[C@H]3O)c2n1	> 64	0.18	> 347	0.49	> 131
COc1ncnc2c1c(-c1ccc(Cl)cc1)cn2[C@@H]1O[C@H](CO)[C@@H](O)[C@H]1O	61.1	22.3	2.7	> 64	–
O=c1[nH]cnc2c1c(F)cn2[C@@H]1O[C@H](CO)[C@@H](O)[C@H]1O	2.03	1.06	1.9	0.1	21
O=c1[nH]cnc2c1c(I)cn2[C@@H]1O[C@H](CO)[C@@H](O)[C@H]1O	> 64	23.9	> 2.7	57.3	> 1.1
Nc1nc2c(c(Br)cn2[C@@H]2O[C@H](CO)[C@@H](O)[C@H]2O)c(=O)[nH]1	> 64	0.49	> 130	2.01	> 31
Cc1nc2c(ccn2[C@@H]2O[C@H](CO)[C@@H](O)[C@H]2O)c(=O)[nH]1	> 64	4.7	> 13	> 64	–
COc1nc(N)nc2c1c(Br)cn2[C@@H]1O[C@H](CO)[C@@H](O)[C@H]1O	3.24	0.077	42	0.13	24
